≈ marks a conversion by molar mass, not a printed value.
Assays:
Candida albicans [1] = experiment: Anti-fungal activity against Candida albicans SC5314 by broth microdilution method; assay type: functional
Candida albicans [2] = experiment: Anti-fungal activity against Candida albicans CPCC 400523 by broth microdilution method; assay type: functional
Cryptococcus neoformans = experiment: Anti-fungal activity against Cryptococcus neoformans CGMCC 2.3161 by broth microdilution method; assay type: functional
Aspergillus fumigatus = experiment: Anti-fungal activity against Aspergillus fumigatus CGMCC 3.7795 by broth microdilution method; assay type: functional
Candida tropicalis = experiment: Anti-fungal activity against Candida tropicalis CGMCC 2.3739 by broth microdilution method; assay type: functional
Candida albicans [3] = experiment: Anti-fungal activity against fluconazole-resistant Candida albicans 100 by broth microdilution method; assay type: functional
Candida albicans [4] = experiment: Anti-fungal activity against fluconazole-resistant Candida albicans 103 by broth microdilution method; assay type: functional
[5] = molecular target: T1, Lanosterol 14-alpha demethylase (Candida albicans (strain SC5314 / ATCC MYA-2876) (Yeast), UniProt P10613); experiment: Inhibition of Candida albicans SC5314 CYP51 assessed as ergosterol composition of total sterols at 8 ug/ml by GC-MS method (reference value: 89.4 %); design: scale not given: the % may be the effect or the level left; conditions: at 8 µg/mL
T1 sequence (P10613 whole entry): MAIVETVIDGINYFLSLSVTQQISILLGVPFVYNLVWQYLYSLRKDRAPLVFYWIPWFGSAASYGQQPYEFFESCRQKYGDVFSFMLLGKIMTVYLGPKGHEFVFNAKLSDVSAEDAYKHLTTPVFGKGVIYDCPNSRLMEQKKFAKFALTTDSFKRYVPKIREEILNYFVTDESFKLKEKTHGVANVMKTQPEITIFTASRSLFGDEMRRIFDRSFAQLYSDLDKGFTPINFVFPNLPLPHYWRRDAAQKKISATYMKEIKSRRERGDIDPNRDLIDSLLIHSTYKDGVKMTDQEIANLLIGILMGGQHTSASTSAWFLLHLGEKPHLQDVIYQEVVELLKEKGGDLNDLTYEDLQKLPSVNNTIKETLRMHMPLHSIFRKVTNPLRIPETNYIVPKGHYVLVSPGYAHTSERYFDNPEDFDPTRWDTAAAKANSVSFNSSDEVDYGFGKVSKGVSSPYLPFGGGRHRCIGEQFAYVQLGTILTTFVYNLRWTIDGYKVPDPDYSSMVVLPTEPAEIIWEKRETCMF

[6] = molecular target: T1, Lanosterol 14-alpha demethylase; experiment: Inhibition of Candida albicans SC5314 CYP51 assessed as obtusifoliol composition of total sterols at 8 ug/ml by GC-MS method relative to control; design: scale not given: the % may be the effect or the level left; conditions: at 8 µg/mL
[7] = molecular target: T1, Lanosterol 14-alpha demethylase; experiment: Inhibition of Candida albicans SC5314 CYP51 assessed as lanosterol composition of total sterols at 8 ug/ml by GC-MS method (reference value: 3.5 %); design: scale not given: the % may be the effect or the level left; conditions: at 8 µg/mL
[8] = molecular target: T1, Lanosterol 14-alpha demethylase; experiment: Inhibition of Candida albicans SC5314 CYP51 assessed as eburicol composition of total sterols at 8 ug/ml by GC-MS method relative to control; design: scale not given: the % may be the effect or the level left; conditions: at 8 µg/mL
[9] = molecular target: T1, Lanosterol 14-alpha demethylase; experiment: Inhibition of Candida albicans SC5314 CYP51 assessed as change in total sterol composition at 8 ug/ml by GC-MS method (reference value: 7.1 %); design: scale not given: the % may be the effect or the level left; conditions: at 8 µg/mL

Structure (SMILES)	MIC (Candida albicans [1]) [µg/mL]	MIC (Candida albicans [2]) [µg/mL]	MIC (Cryptococcus neoformans) [µg/mL]	MIC (Aspergillus fumigatus) [µg/mL]	MIC (Candida tropicalis) [µg/mL]	MIC (Candida albicans [3]) [µg/mL]	MIC (Candida albicans [4]) [µg/mL]	Activity [5] [%]	Activity [6] [%]	Activity [7] [%]	Activity [8] [%]	Activity [9] [%]
COC(=O)[C@H](Cn1ccnc1)NC(=O)c1ccc(-c2ccccc2)cc1	2 (≈ 5.72 µM)	2 (≈ 5.72 µM)	> 16	> 16	0.25 (≈ 0.716 µM)	–	–	–	–	–	–	–
CC(C)OC(=O)[C@H](Cn1ccnc1)NC(=O)c1ccc(-c2ccc(C(F)(F)F)cc2)cc1	> 16	> 16	> 16	> 16	2 (≈ 4.49 µM)	–	–	–	–	–	–	–
CC(C)OC(=O)[C@H](Cn1ccnc1)NC(=O)c1ccc(-c2cccc(F)c2)cc1	0.0625 (≈ 0.158 µM)	0.25 (≈ 0.632 µM)	16 (≈ 40.5 µM)	> 16	0.0625 (≈ 0.158 µM)	–	–	–	–	–	–	–
CC(C)COC(=O)[C@H](Cn1cncn1)NC(=O)c1ccc(-c2ccccc2)cc1	1 (≈ 2.55 µM)	8 (≈ 20.4 µM)	16 (≈ 40.8 µM)	> 16	4 (≈ 10.2 µM)	–	–	–	–	–	–	–
COC(=O)[C@H](Cn1ccnc1)NC(=O)c1ccc(-c2ccccc2F)cc1	16 (≈ 43.6 µM)	16 (≈ 43.6 µM)	2 (≈ 5.44 µM)	> 16	4 (≈ 10.9 µM)	–	–	–	–	–	–	–
CC(C)OC(=O)[C@H](Cn1ccnc1)NC(=O)c1ccc(-c2ccc(Cl)cc2)cc1	0.25 (≈ 0.607 µM)	1 (≈ 2.43 µM)	16 (≈ 38.8 µM)	> 16	0.25 (≈ 0.607 µM)	–	–	–	–	–	–	–
CC(C)COC(=O)[C@H](Cn1ccnc1)NC(=O)c1ccc(-c2ccccc2Cl)cc1	0.5 (≈ 1.17 µM)	2 (≈ 4.7 µM)	16 (≈ 37.6 µM)	> 16	0.5 (≈ 1.17 µM)	–	–	–	–	–	–	–
CC(C)OC(=O)[C@H](Cn1ccnc1)NC(=O)c1ccc(-c2ccccc2Cl)cc1	0.25 (≈ 0.607 µM)	1 (≈ 2.43 µM)	16 (≈ 38.8 µM)	> 16	0.5 (≈ 1.21 µM)	–	–	–	–	–	–	–
CCCOC(=O)[C@H](Cn1ccnc1)NC(=O)c1ccc(-c2ccccc2F)cc1	0.125 (≈ 0.316 µM)	0.25 (≈ 0.632 µM)	0.5 (≈ 1.26 µM)	> 16	0.0625 (≈ 0.158 µM)	–	–	–	–	–	–	–
CC(C)COC(=O)[C@H](Cn1ccnc1)NC(=O)c1ccc(-c2ccccc2)cc1	0.0312 (≈ 0.0798 µM)	0.25 (≈ 0.639 µM)	1 (≈ 2.55 µM)	> 16	0.0312 (≈ 0.0798 µM)	–	–	–	–	–	–	–
CC(C)OC(=O)[C@H](Cn1ccnc1)NC(=O)c1ccc(-c2cccc(C#N)c2)cc1	> 16	> 16	> 16	> 16	8 (≈ 19.9 µM)	–	–	–	–	–	–	–
Cc1ccccc1-c1ccc(C(=O)N[C@@H](Cn2ccnc2)C(=O)OC(C)C)cc1	0.5 (≈ 1.28 µM)	2 (≈ 5.11 µM)	16 (≈ 40.9 µM)	> 16	2 (≈ 5.11 µM)	–	–	–	–	–	–	–
CC(C)OC(=O)[C@H](Cn1ccnc1)NC(=O)c1ccc(-c2ccc(F)c(F)c2)cc1	> 16	> 16	> 16	> 16	8 (≈ 19.4 µM)	–	–	–	–	–	–	–
CCOC(=O)[C@H](Cn1ccnc1)NC(=O)c1ccc(-c2ccccc2F)cc1	0.25 (≈ 0.655 µM)	1 (≈ 2.62 µM)	1 (≈ 2.62 µM)	> 16	0.125 (≈ 0.328 µM)	–	–	–	–	–	–	–
CC(C)NC(=O)[C@H](Cn1ccnc1)NC(=O)c1ccc(-c2ccccc2)cc1	> 16	> 16	> 16	> 16	> 16	–	–	–	–	–	–	–
CC(C)CNC(=O)[C@H](Cn1ccnc1)NC(=O)c1ccc(-c2ccccc2)cc1	> 16	> 16	> 16	> 16	> 16	–	–	–	–	–	–	–
CC(C)OC(=O)[C@H](Cn1ccnc1)NC(=O)c1ccc(-c2ccccc2F)cc1	0.0625 (≈ 0.158 µM)	0.25 (≈ 0.632 µM)	1 (≈ 2.53 µM)	> 16	0.0625 (≈ 0.158 µM)	8 (≈ 20.2 µM)	4 (≈ 10.1 µM)	–	–	–	–	–
Cc1ccccc1-c1ccc(C(=O)N[C@@H](Cn2ccnc2)C(=O)OCC(C)C)cc1	> 16	> 16	> 16	> 16	4 (≈ 9.86 µM)	–	–	–	–	–	–	–
CC(C)OC(=O)[C@H](Cn1ccnc1)NC(=O)c1ccc(-c2ccc(F)cc2F)cc1	1 (≈ 2.42 µM)	2 (≈ 4.84 µM)	8 (≈ 19.4 µM)	> 16	0.5 (≈ 1.21 µM)	–	–	–	–	–	–	–
CC(C)OC(=O)[C@H](Cn1ccnc1)NC(=O)c1ccc(-c2cc(F)ccc2F)cc1	0.25 (≈ 0.605 µM)	1 (≈ 2.42 µM)	16 (≈ 38.7 µM)	> 16	0.0625 (≈ 0.151 µM)	–	–	–	–	–	–	–
Cc1ccc(-c2ccc(C(=O)N[C@@H](Cn3ccnc3)C(=O)OC(C)C)cc2)cc1	0.0625 (≈ 0.16 µM)	0.5 (≈ 1.28 µM)	4 (≈ 10.2 µM)	> 16	0.0625 (≈ 0.16 µM)	–	–	–	–	–	–	–
CC(C)OC(=O)[C@H](Cn1cncn1)NC(=O)c1ccc(-c2ccccc2)cc1	0.25 (≈ 0.661 µM)	4 (≈ 10.6 µM)	16 (≈ 42.3 µM)	> 16	2 (≈ 5.28 µM)	–	–	–	–	–	–	–
CC(C)OC(=O)[C@H](Cn1ccnc1)NC(=O)c1ccc(-c2ccc(OC(F)(F)F)cc2)cc1	0.125 (≈ 0.271 µM)	0.125 (≈ 0.271 µM)	16 (≈ 34.7 µM)	> 16	0.5 (≈ 1.08 µM)	–	–	–	–	–	–	–
CC(C)OC(=O)[C@H](Cn1ccnc1)NC(=O)c1ccc(-c2ccccc2)cc1	0.0312 (≈ 0.0828 µM)	0.25 (≈ 0.662 µM)	2 (≈ 5.3 µM)	> 16	0.0625 (≈ 0.166 µM)	–	–	–	–	–	–	–
CC(C)OC(=O)[C@H](Cn1ccnc1)NC(=O)c1ccc(-c2ccc(F)cc2)cc1	1 (≈ 2.53 µM)	8 (≈ 20.2 µM)	> 16	> 16	0.5 (≈ 1.26 µM)	–	–	–	–	–	–	–
CC(C)COC(=O)[C@H](Cn1ccnc1)NC(=O)c1ccc(-c2ccccc2F)cc1	0.0312 (≈ 0.0763 µM)	0.125 (≈ 0.305 µM)	0.5 (≈ 1.22 µM)	> 16	0.0312 (≈ 0.0763 µM)	2 (≈ 4.88 µM)	4 (≈ 9.77 µM)	2.5	6.6	19.6	65.1	6.2
OC(Cn1cncn1)(Cn1cncn1)c1ccc(F)cc1F [FLUCONAZOLE]	0.5 (≈ 1.63 µM)	1 (≈ 3.27 µM)	4 (≈ 13.1 µM)	> 16	1 (≈ 3.27 µM)	> 64	> 64	2	6.8	18.2	68.1	4.9
CCC(C)n1ncn(-c2ccc(N3CCN(c4ccc(OCC5COC(Cn6cncn6)(c6ccc(Cl)cc6Cl)O5)cc4)CC3)cc2)c1=O (stereo unspecified) [ITRACONAZOLE]	0.0625 (≈ 0.0886 µM)	0.25 (≈ 0.354 µM)	1 (≈ 1.42 µM)	4 (≈ 5.67 µM)	0.5 (≈ 0.709 µM)	–	–	–	–	–	–	–

— ChEMBL document CHEMBL3872264, “Discovery of biphenyl imidazole derivatives as potent antifungal agents: Design, synthesis, and structure-activity relationship studies” (Bioorg Med Chem, 2017)
